What is called pIC50 is the IC50 on a negative log10 scale, so that one unit is a factor of ten. As usually defined, the pKi is the negative decadic logarithm of the Ki, by convention in mol/L.

Series [1] deals with T1, Glucose-6-phosphate 1-dehydrogenase (Homo sapiens, UniProt P11413). Put plainly: Competitive inhibition of recombinant full length human G6PD expressed in Escherichia coli HB351 using G6P as substrate in presence of NADP+ by Lineweaver-Burk plot analysis.
Series [2] deals with T2, Bifunctional glucose-6-phosphate 1-dehydrogenase/6-phosphogluconolactonase (Plasmodium falciparum (isolate 3D7), UniProt Q8IKU0).
T2 sequence (Q8IKU0 whole entry): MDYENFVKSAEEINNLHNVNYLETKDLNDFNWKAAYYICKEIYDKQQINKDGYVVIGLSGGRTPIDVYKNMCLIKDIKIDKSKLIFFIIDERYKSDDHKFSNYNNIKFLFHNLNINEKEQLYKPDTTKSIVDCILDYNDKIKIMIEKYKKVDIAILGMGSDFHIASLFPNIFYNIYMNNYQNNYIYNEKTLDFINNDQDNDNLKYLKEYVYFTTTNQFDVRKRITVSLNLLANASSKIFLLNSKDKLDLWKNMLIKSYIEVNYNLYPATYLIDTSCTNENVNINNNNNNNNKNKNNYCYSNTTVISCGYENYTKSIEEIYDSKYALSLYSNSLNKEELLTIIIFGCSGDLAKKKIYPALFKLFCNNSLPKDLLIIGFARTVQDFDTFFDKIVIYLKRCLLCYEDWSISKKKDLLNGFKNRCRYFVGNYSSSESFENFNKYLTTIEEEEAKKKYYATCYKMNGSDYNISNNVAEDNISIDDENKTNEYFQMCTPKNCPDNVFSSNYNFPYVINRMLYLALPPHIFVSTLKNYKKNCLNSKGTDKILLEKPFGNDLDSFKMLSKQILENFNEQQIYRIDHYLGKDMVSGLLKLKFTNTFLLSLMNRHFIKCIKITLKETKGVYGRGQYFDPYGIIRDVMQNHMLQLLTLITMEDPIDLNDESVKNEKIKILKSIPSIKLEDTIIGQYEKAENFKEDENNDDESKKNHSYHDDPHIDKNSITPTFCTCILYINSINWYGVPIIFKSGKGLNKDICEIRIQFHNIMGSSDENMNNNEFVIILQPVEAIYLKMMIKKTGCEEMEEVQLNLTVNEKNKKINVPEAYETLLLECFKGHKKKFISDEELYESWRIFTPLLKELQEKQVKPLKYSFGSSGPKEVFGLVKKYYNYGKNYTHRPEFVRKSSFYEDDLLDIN
Put plainly: Competitive inhibition of Plasmodium falciparum G6PD-6PGL using G6P as substrate in presence of NADP+ by Lineweaver-Burk plot analysis.

The target in series [3] is T1, Glucose-6-phosphate 1-dehydrogenase. Put plainly: Inhibition of recombinant full length human G6PD expressed in Escherichia coli HB351 using G6P as substrate in presence of NADP+ by spectrofluorimetric analysis.
Series [4] in a line: Cytotoxicity against human HepG2 cells assessed as cell viability at 1.5 to 2 mM after 24 hrs by EZ4U staining-based spectrophotometric analysis relative to control. Particulars: read-out: Activity.
In series [5] the target is T2, Bifunctional glucose-6-phosphate 1-dehydrogenase/6-phosphogluconolactonase. Put plainly: Inhibition of Plasmodium falciparum G6PD-6PGL using G6P as substrate in presence of NADP+ by spectrofluorimetric analysis.
Series [6] is described as follows: Cytotoxicity against human HepG2 cells assessed as cell survival at 0.2 to 1 mM after 24 hrs by EZ4U staining-based spectrophotometric analysis relative to control. Particulars: read-out: Survival.
The nature of series [7]: Selectivity index, ratio of Ki for recombinant full length human G6PD to Ki for Plasmodium falciparum G6PD-6PGL.
For series [8], the system named is Plasmodium falciparum. Put plainly: Antiparasitic activity against Plasmodium falciparum Dd2 clone MRA-150 synchronized ring stage after 48 hrs by PicoGreen dye based microfluorimetric analysis. It counts as functional, organism-based. Particulars: Dd2 clone MRA-150, 48 h.

pIC50, pKi: −log10 of the molar value.

T1 sequence (P11413 whole entry): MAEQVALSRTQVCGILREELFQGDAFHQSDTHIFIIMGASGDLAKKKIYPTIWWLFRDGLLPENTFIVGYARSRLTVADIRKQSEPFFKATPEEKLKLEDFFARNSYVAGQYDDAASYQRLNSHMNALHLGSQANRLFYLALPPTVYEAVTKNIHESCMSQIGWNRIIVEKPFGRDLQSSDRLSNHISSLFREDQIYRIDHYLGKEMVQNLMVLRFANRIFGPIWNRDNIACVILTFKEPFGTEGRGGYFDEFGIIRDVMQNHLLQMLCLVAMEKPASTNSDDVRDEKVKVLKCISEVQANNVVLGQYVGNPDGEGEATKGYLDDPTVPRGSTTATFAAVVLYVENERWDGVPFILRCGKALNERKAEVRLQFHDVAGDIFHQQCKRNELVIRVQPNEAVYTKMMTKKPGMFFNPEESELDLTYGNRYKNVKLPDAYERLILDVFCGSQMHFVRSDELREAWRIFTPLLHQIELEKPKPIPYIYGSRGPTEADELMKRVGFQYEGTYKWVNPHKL

Regarding `CCN1CCC[C@@H]1CNC(=O)c1ccc2c(c1)NC(=O)c1cccc(C)c1S2`, the negative logarithm of the IC50 (pIC50) is less than 4.10 in series [1] and 6.72 in series [2].

In the case of `CO[C@H]1O[C@H](CNS(=O)(=O)CCNC(=N)N)[C@@H](O)[C@H](O)[C@H]1O`, the pKi in series [3] was 4.77; in series [5], 4.49. Further, the viability at 24 h, 2000 µM in series [4] was less than 80%. Also, in series [6], the viability at 24 h, up to 1000 µM is more than 80%. Moreover, the Ratio Ki in series [7] came out at 0.5. Besides, the pIC50 in series [8] is 3.48.

Regarding `CO[C@H]1O[C@H](CNS(=O)(=O)CCN)[C@@H](O)[C@H](O)[C@H]1O`, the negative-log Ki (pKi) is less than 3.40 in series [3] and 4.64 in series [5]. In series [6], the viability at 24 h, up to 1000 µM was more than 80%. Besides, the Ratio Ki in series [7] was more than 18. In series [8], this compound had a pIC50 of 2.83.

For the compound `CCN1CCC[C@@H]1CNC(=O)c1ccc2c(c1)NC(=O)/C(=C/c1ccccc1F)S2`, the figures for the pIC50 in series [1] and in series [2] were less than 4.10 and 6.05, respectively.

For `CO[C@H]1O[C@H](CS(=O)(=O)CCCNC(=N)N)[C@@H](O)[C@H](O)[C@H]1O`, the pKi is 4.65 in series [3] and 4.37 in series [5]. Further, in series [4], the viability at 24 h, 2000 µM was less than 80%. Moreover, the viability at 24 h, up to 1000 µM in series [6] was more than 80%. The Ratio Ki in series [7] turned out to be 0.5. Moreover, the pIC50 in series [8] was 2.80.

Regarding `CO[C@H]1O[C@H](CSCCN)[C@@H](O)[C@H](O)[C@H]1O`, the pKi in series [3] is less than 2.70; in series [5] it was 4.12. The viability at 24 h, up to 1000 µM in series [6] is more than 80%. Further, the Ratio Ki in series [7] was more than 26. The compound further gave a pIC50 in series [8] of 2.76.

Turning to `CO[C@H]1O[C@H](CSCCNC(=N)N)[C@@H](O)[C@H](O)[C@H]1O`, the pKi in series [3] was less than 3.70; in series [5], 4.34. Also, in series [6], the viability at 24 h, up to 1000 µM is more than 80%. Moreover, in series [7], the Ratio Ki is more than 4.4. The pIC50 in series [8] was 3.23.

`CO[C@H]1O[C@H](CSCCCN)[C@@H](O)[C@H](O)[C@H]1O`: the pKi was 3.89 in series [3] and 3.54 in series [5]. In addition, the viability at 24 h, 2000 µM in series [4] is less than 80%. Moreover, in series [6], the viability at 24 h, up to 1000 µM is more than 80%. Further, the Ratio Ki in series [7] stood at 0.4. In series [8], this compound showed a pIC50 of less than 2.70.

For `CO[C@H]1O[C@H](CS(=O)(=O)CCCN)[C@@H](O)[C@H](O)[C@H]1O`, the pKi is 4.45 in series [3] and 4.46 in series [5]. For the same compound, the viability at 24 h, 2000 µM in series [4] is less than 80%. For the same compound, in series [6], the viability at 24 h, up to 1000 µM is more than 80%. The Ratio Ki in series [7] worked out at 1. For the same compound, in series [8], the pIC50 was less than 2.70.

As to `CO[C@H]1O[C@H](CSCCC#N)[C@@H](O)[C@H](O)[C@H]1O`, the figures for the pKi in series [3] and in series [5] were less than 3.70 and 3.59, respectively. For the same compound, in series [6], the viability at 24 h, up to 1000 µM is more than 80%. Besides, the Ratio Ki in series [7] was more than 0.8. This compound also gave a pIC50 in series [8] of 2.99.

As for `CO[C@H]1O[C@H](CS(=O)(=O)CCC#N)[C@@H](O)[C@H](O)[C@H]1O`, the results for the pKi in series [3] and in series [5] were less than 3.70 and 4.16, respectively. Moreover, the viability at 24 h, up to 1000 µM in series [6] is more than 80%. Further, in series [7], the Ratio Ki is more than 2.9. This compound also had a pIC50 in series [8] of 3.02.

These data come from ChEMBL document CHEMBL4145500, “First homology model of Plasmodium falciparum glucose-6-phosphate dehydrogenase: Discovery of selective substrate analog-based inhibitors as novel antimalarial agents” (Eur J Med Chem, 2018).
